Results published in PubChem BioAssay (NCI).
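Interpolation was linear, between the two tested concentrations surrounding the appropriate level; five concentrations were tested over 48 hours in 96-well plates. GI50 marks 50% less growth. TGI: concentration producing complete growth inhibition.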

Assays:
Assay in all cases: DTP human tumour cell line panel, 48 h
UACC-62 melanoma = tested on: UACC-62 melanoma
SK-MEL-2 melanoma = tested on: SK-MEL-2 melanoma
HCT-116 colon = tested on: HCT-116 colon
U251 CNS = tested on: U251 CNS
RXF 393 renal = tested on: RXF 393 renal
RPMI-8226 leukemia = tested on: RPMI-8226 leukemia
A549 NSCLC = tested on: A549 NSCLC
MOLT-4 leukemia = tested on: MOLT-4 leukemia
SK-OV-3 ovarian = tested on: SK-OV-3 ovarian
CAKI-1 renal = tested on: CAKI-1 renal
MDA-MB-435 = tested on: MDA-MB-435
NCI-H23 lung = tested on: NCI-H23 lung
SF-295 CNS = tested on: SF-295 CNS
SR leukemia = tested on: SR leukemia
PC-3 prostate = tested on: PC-3 prostate
NCI/ADR-RES ovarian = tested on: NCI/ADR-RES ovarian
K-562 leukemia = tested on: K-562 leukemia
SK-MEL-28 melanoma = tested on: SK-MEL-28 melanoma
HT29 colon = tested on: HT29 colon
786-0 renal = tested on: 786-0 renal
HS 578T breast = tested on: HS 578T breast
DU-145 prostate = tested on: DU-145 prostate
COLO 205 colon = tested on: COLO 205 colon
ACHN renal = tested on: ACHN renal
SF-539 CNS = tested on: SF-539 CNS
T-47D breast = tested on: T-47D breast
NCI-H522 lung = tested on: NCI-H522 lung
IGROV1 ovarian = tested on: IGROV1 ovarian
UO-31 renal = tested on: UO-31 renal
SK-MEL-5 melanoma = tested on: SK-MEL-5 melanoma
SN12C renal = tested on: SN12C renal
SNB-75 CNS = tested on: SNB-75 CNS
MALME-3M melanoma = tested on: MALME-3M melanoma
SNB-19 CNS = tested on: SNB-19 CNS
HCT-15 colon = tested on: HCT-15 colon
UACC-257 melanoma = tested on: UACC-257 melanoma
A498 renal = tested on: A498 renal
LOX IMVI melanoma = tested on: LOX IMVI melanoma
HOP-92 NSCLC = tested on: HOP-92 NSCLC
HL-60(TB) leukemia = tested on: HL-60(TB) leukemia
OVCAR-3 ovarian = tested on: OVCAR-3 ovarian
SF-268 CNS = tested on: SF-268 CNS
OVCAR-4 ovarian = tested on: OVCAR-4 ovarian
CCRF-CEM leukemia = tested on: CCRF-CEM leukemia
HCC-2998 colon = tested on: HCC-2998 colon
BT-549 breast = tested on: BT-549 breast
OVCAR-8 ovarian = tested on: OVCAR-8 ovarian
OVCAR-5 ovarian = tested on: OVCAR-5 ovarian
NCI-H226 lung = tested on: NCI-H226 lung
TK-10 renal = tested on: TK-10 renal
NCI-H460 lung = tested on: NCI-H460 lung
MCF7 breast = tested on: MCF7 breast
KM12 colon = tested on: KM12 colon
MDA-MB-231 breast = tested on: MDA-MB-231 breast
SW-620 colon = tested on: SW-620 colon
HOP-62 NSCLC = tested on: HOP-62 NSCLC
M14 melanoma = tested on: M14 melanoma

**Q.** For `Cc1cccc2c(Nc3ccc(NS(C)(=O)=O)cc3)c3ccc([N+](=O)[O-])cc3nc12`, which GI50 (UACC-62 melanoma) is on record?
**A.** 773 nM

**Q.** What about the TGI (UACC-62 melanoma) of the same molecule?
**A.** 3.01 µM

**Q.** And the GI50 (SK-MEL-2 melanoma)?
**A.** 2550 nM

**Q.** What about the TGI (SK-MEL-2 melanoma) of the same molecule?
**A.** 5.49 µM

**Q.** What about the GI50 (HCT-116 colon) of the same molecule?
**A.** 927 nM

**Q.** What about the TGI (HCT-116 colon) of the same molecule?
**A.** 5.24 µM

**Q.** And the GI50 (U251 CNS)?
**A.** 419 nM

**Q.** What about the TGI (U251 CNS) of the same molecule?
**A.** 6.36 µM

**Q.** What about the GI50 (RXF 393 renal) of the same molecule?
**A.** 1380 nM

**Q.** And the TGI (RXF 393 renal)?
**A.** 3.1 µM

**Q.** What about the GI50 (RPMI-8226 leukemia) of the same molecule?
**A.** 1090 nM

**Q.** And the TGI (RPMI-8226 leukemia)?
**A.** 7.56 µM

**Q.** And the GI50 (A549 NSCLC)?
**A.** 128 nM

**Q.** And the TGI (A549 NSCLC)?
**A.** 3.24 µM

**Q.** What about the GI50 (MOLT-4 leukemia) of the same molecule?
**A.** 300 nM

**Q.** And the TGI (MOLT-4 leukemia)?
**A.** 6.09 µM

**Q.** What about the GI50 (SK-OV-3 ovarian) of the same molecule?
**A.** 2400 nM

**Q.** And the TGI (SK-OV-3 ovarian)?
**A.** 17.1 µM

**Q.** What about the GI50 (CAKI-1 renal) of the same molecule?
**A.** 2430 nM

**Q.** And the TGI (CAKI-1 renal)?
**A.** 24 µM

**Q.** And the GI50 (MDA-MB-435)?
**A.** 1850 nM

**Q.** And the TGI (MDA-MB-435)?
**A.** 7.27 µM

**Q.** What about the GI50 (NCI-H23 lung) of the same molecule?
**A.** 1250 nM

**Q.** And the TGI (NCI-H23 lung)?
**A.** 4.31 µM

**Q.** What about the GI50 (SF-295 CNS) of the same molecule?
**A.** 290 nM

**Q.** What about the TGI (SF-295 CNS) of the same molecule?
**A.** 7.21 µM

**Q.** What about the GI50 (SR leukemia) of the same molecule?
**A.** 59.8 nM

**Q.** And the TGI (SR leukemia)?
**A.** 2690 nM

**Q.** What about the GI50 (PC-3 prostate) of the same molecule?
**A.** 1490 nM

**Q.** And the TGI (PC-3 prostate)?
**A.** 7.02 µM

**Q.** And the GI50 (NCI/ADR-RES ovarian)?
**A.** 8.3 µM

**Q.** And the TGI (NCI/ADR-RES ovarian)?
**A.** 47.1 µM

**Q.** And the GI50 (K-562 leukemia)?
**A.** 2040 nM

**Q.** And the TGI (K-562 leukemia)?
**A.** 14 µM

**Q.** What about the GI50 (SK-MEL-28 melanoma) of the same molecule?
**A.** 1510 nM

**Q.** And the TGI (SK-MEL-28 melanoma)?
**A.** 4.38 µM

**Q.** And the GI50 (HT29 colon)?
**A.** 1590 nM

**Q.** And the TGI (HT29 colon)?
**A.** 3.47 µM

**Q.** What about the GI50 (786-0 renal) of the same molecule?
**A.** 738 nM

**Q.** What about the TGI (786-0 renal) of the same molecule?
**A.** 4.45 µM

**Q.** And the GI50 (HS 578T breast)?
**A.** 1230 nM

**Q.** What about the TGI (HS 578T breast) of the same molecule?
**A.** 5.42 µM

**Q.** What about the GI50 (DU-145 prostate) of the same molecule?
**A.** 253 nM

**Q.** What about the TGI (DU-145 prostate) of the same molecule?
**A.** 4.4 µM

**Q.** And the GI50 (COLO 205 colon)?
**A.** 1030 nM

**Q.** What about the TGI (COLO 205 colon) of the same molecule?
**A.** 3.79 µM

**Q.** What about the GI50 (ACHN renal) of the same molecule?
**A.** 661 nM

**Q.** And the TGI (ACHN renal)?
**A.** 4.13 µM

**Q.** And the GI50 (SF-539 CNS)?
**A.** 1070 nM

**Q.** What about the TGI (SF-539 CNS) of the same molecule?
**A.** 11.4 µM

**Q.** What about the GI50 (T-47D breast) of the same molecule?
**A.** 147 nM

**Q.** What about the TGI (T-47D breast) of the same molecule?
**A.** 9.32 µM

**Q.** And the GI50 (NCI-H522 lung)?
**A.** 1110 nM

**Q.** What about the TGI (NCI-H522 lung) of the same molecule?
**A.** 2520 nM

**Q.** And the GI50 (IGROV1 ovarian)?
**A.** 954 nM

**Q.** What about the TGI (IGROV1 ovarian) of the same molecule?
**A.** 3.65 µM

**Q.** And the GI50 (UO-31 renal)?
**A.** 1770 nM

**Q.** What about the TGI (UO-31 renal) of the same molecule?
**A.** 13 µM

**Q.** And the GI50 (SK-MEL-5 melanoma)?
**A.** 487 nM

**Q.** What about the TGI (SK-MEL-5 melanoma) of the same molecule?
**A.** 1990 nM

**Q.** And the GI50 (SN12C renal)?
**A.** 486 nM

**Q.** What about the TGI (SN12C renal) of the same molecule?
**A.** 7.58 µM

**Q.** And the GI50 (SNB-75 CNS)?
**A.** 1120 nM

**Q.** And the TGI (SNB-75 CNS)?
**A.** 5.93 µM

**Q.** What about the GI50 (MALME-3M melanoma) of the same molecule?
**A.** 1210 nM

**Q.** And the TGI (MALME-3M melanoma)?
**A.** 3.43 µM

**Q.** And the GI50 (SNB-19 CNS)?
**A.** 456 nM

**Q.** And the TGI (SNB-19 CNS)?
**A.** 14.7 µM

**Q.** What about the GI50 (HCT-15 colon) of the same molecule?
**A.** 1190 nM

**Q.** What about the TGI (HCT-15 colon) of the same molecule?
**A.** 3.54 µM

**Q.** And the GI50 (UACC-257 melanoma)?
**A.** 1530 nM

**Q.** What about the TGI (UACC-257 melanoma) of the same molecule?
**A.** 4.6 µM

**Q.** What about the GI50 (A498 renal) of the same molecule?
**A.** 703 nM

**Q.** What about the TGI (A498 renal) of the same molecule?
**A.** 3.81 µM

**Q.** What about the GI50 (LOX IMVI melanoma) of the same molecule?
**A.** 409 nM

**Q.** What about the TGI (LOX IMVI melanoma) of the same molecule?
**A.** 2130 nM

**Q.** And the GI50 (HOP-92 NSCLC)?
**A.** 345 nM

**Q.** And the TGI (HOP-92 NSCLC)?
**A.** 2470 nM

**Q.** What about the GI50 (HL-60(TB) leukemia) of the same molecule?
**A.** 2070 nM

**Q.** What about the TGI (HL-60(TB) leukemia) of the same molecule?
**A.** 7.09 µM

**Q.** What about the GI50 (OVCAR-3 ovarian) of the same molecule?
**A.** 1450 nM

**Q.** What about the TGI (OVCAR-3 ovarian) of the same molecule?
**A.** 4.91 µM

**Q.** And the GI50 (SF-268 CNS)?
**A.** 355 nM

**Q.** What about the TGI (SF-268 CNS) of the same molecule?
**A.** 4.38 µM

**Q.** And the GI50 (OVCAR-4 ovarian)?
**A.** 1900 nM

**Q.** What about the TGI (OVCAR-4 ovarian) of the same molecule?
**A.** 6.38 µM

**Q.** What about the GI50 (CCRF-CEM leukemia) of the same molecule?
**A.** 326 nM

**Q.** And the TGI (CCRF-CEM leukemia)?
**A.** 4.52 µM

**Q.** And the GI50 (HCC-2998 colon)?
**A.** 1490 nM

**Q.** What about the TGI (HCC-2998 colon) of the same molecule?
**A.** 3.11 µM

**Q.** What about the GI50 (BT-549 breast) of the same molecule?
**A.** 1750 nM

**Q.** And the TGI (BT-549 breast)?
**A.** 7.47 µM

**Q.** And the GI50 (OVCAR-8 ovarian)?
**A.** 1300 nM

**Q.** What about the TGI (OVCAR-8 ovarian) of the same molecule?
**A.** 6.42 µM

**Q.** What about the GI50 (OVCAR-5 ovarian) of the same molecule?
**A.** 3.95 µM

**Q.** And the TGI (OVCAR-5 ovarian)?
**A.** 21.1 µM

**Q.** And the GI50 (NCI-H226 lung)?
**A.** 755 nM

**Q.** And the TGI (NCI-H226 lung)?
**A.** 4.08 µM

**Q.** And the GI50 (TK-10 renal)?
**A.** 3.16 µM

**Q.** And the TGI (TK-10 renal)?
**A.** 17.5 µM

**Q.** What about the GI50 (NCI-H460 lung) of the same molecule?
**A.** 23.4 nM

**Q.** And the TGI (NCI-H460 lung)?
**A.** 1760 nM

**Q.** And the GI50 (MCF7 breast)?
**A.** 38.2 nM

**Q.** And the TGI (MCF7 breast)?
**A.** 3.58 µM

**Q.** What about the GI50 (KM12 colon) of the same molecule?
**A.** 694 nM

**Q.** And the TGI (KM12 colon)?
**A.** 2970 nM

**Q.** And the GI50 (MDA-MB-231 breast)?
**A.** 2050 nM

**Q.** And the TGI (MDA-MB-231 breast)?
**A.** 5.42 µM

**Q.** And the GI50 (SW-620 colon)?
**A.** 870 nM

**Q.** What about the TGI (SW-620 colon) of the same molecule?
**A.** 3.23 µM

**Q.** What about the GI50 (HOP-62 NSCLC) of the same molecule?
**A.** 373 nM

**Q.** And the TGI (HOP-62 NSCLC)?
**A.** 4.87 µM

**Q.** What about the GI50 (M14 melanoma) of the same molecule?
**A.** 808 nM

**Q.** What about the TGI (M14 melanoma) of the same molecule?
**A.** 3.4 µM
